# Measurements reported in PMC11822212, “High-throughput screening identifies Aurora kinase B as a critical therapeutic target for Merkel cell carcinoma” (Nature Communications, 2025).
# Structures can show the parent of a compound that is named as a salt.
# What was measured:
# MCC13 cells (VN-MCC) = experiment: qHTS cell viability (CellTiter-Glo, 72 h; primary and follow-up small molecule screen); type: cell-based, human
# MCC26 cells (VN-MCC) = experiment: as above; type: cell-based, human
# UISO cells (VN-MCC) = experiment: as above; type: cell-based, human
# WAGA cells (VP-MCC) = experiment: as above; type: cell-based, human
# MKL-1 cells (VP-MCC) = experiment: as above; type: cell-based, human
# MKL-2 cells (VP-MCC) = experiment: as above; type: cell-based, human
# HACAT cells = experiment: qHTS cell viability (CellTiter-Glo, 72 h; primary screen), control cell line; type: cell-based, human
# HEK293T cells = experiment: as above; type: cell-based, human
# NIH-3T3 cells = experiment: as above; type: cell-based, mouse
# CRL-7250 cells = experiment: as above; type: cell-based
# [1] = tested on: MCC cell lines (WAGA, MKL-1, MKL-2, MCC13, MCC26, UISO); experiment: qHTS cell viability, all six MCC cell lines as a group (mean AUC, MCC.avg); type: cell-based, human; conditions: NPC library
# [2] = tested on: VP-MCC cell lines (WAGA, MKL-1, MKL-2); experiment: qHTS cell viability, VP-MCC cell lines as a group (mean AUC, VP.MCC.avg); type: cell-based, human; conditions: for VP-MCC_Avg_AUC: mean AUC of VP-MCC cell lines
# [3] = tested on: VN-MCC cell lines (MCC13, MCC26, UISO); experiment: qHTS cell viability, VN-MCC cell lines as a group (mean AUC, VN.MCC.avg); type: cell-based, human; conditions: for VN-MCC_Avg_AUC: mean AUC of VN-MCC cell lines
# [4] = tested on: control cell lines (HACAT, HEK293T, CRL-7250, NIH-3T3); experiment: qHTS cell viability, control cell lines as a group (mean AUC, Control.avg); type: cell-based; conditions: NPC library; mean AUC of control cell lines
# [5] = tested on: six MCC cell lines and four control cell lines; experiment: qHTS cell viability, all 10 cell lines screened; type: cell-based; conditions: NPC library
# [6] = NPC library, qHTS dose-response AUC, MCC13
# [7] = NPC library; qHTS dose-response AUC, MCC26
# [8] = NPC library, qHTS dose-response AUC, UISO
# [9] = NPC library, qHTS dose-response AUC, WAGA
# [10] = NPC library, qHTS dose-response AUC, MKL1
# [11] = NPC library, qHTS dose-response AUC, MKL2
# [12] = NPC library, qHTS dose-response AUC, HACAT control
# [13] = NPC library; qHTS dose-response AUC, HEK293T control
# [14] = NPC library, qHTS dose-response AUC, NIH3T3 control
# [15] = NPC library, qHTS dose-response AUC, CRL7250 control
# [16] = NPC library, therapeutic window: Control avg AUC minus VP-MCC avg AUC
# [17] = NPC library, therapeutic window: Control avg AUC minus VN-MCC avg AUC
# [18] = therapeutic window: Control avg AUC minus MCC avg AUC
# [19] = NPC library, 8-point DRC, area under dose-response curve
# [20] = NPC library, 8-point DRC, control cell line
compound,measurement,setting,value
CCCCC(CC)CNC(=N)NC(=N)NCCCCCCNC(=N)NC(=N)NCC(CC)CCCC (centres unmarked) [Alexidine dihydrochloride],MCC13_AUC,MCC13 cells (VN-MCC); [6],392.522
same,MCC26_AUC,MCC26 cells (VN-MCC); [7],401.146
same,UISO_AUC,UISO cells (VN-MCC); [8],330.63
same,WAGA_AUC,WAGA cells (VP-MCC); [9],351.758
same,MKL1_AUC,MKL-1 cells (VP-MCC); [10],329.916
same,MKL2_AUC,MKL-2 cells (VP-MCC); [11],344.79
same,HACAT_AUC,HACAT cells; [12],392.766
same,HEK293T_AUC,HEK293T cells; [13],380.139
same,NIH3T3_AUC,NIH-3T3 cells; [14],453.563
same,CRL7250_AUC,CRL-7250 cells; [15],401.378
same,MCC_Avg_AUC,[1]; mean AUC of six MCC cell lines,358.46
same,VP-MCC_Avg_AUC,[2]; NPC library,342.155
same,Control-VP-MCC,[2]; [16],64.8071
same,VN-MCC_Avg_AUC,[3]; NPC library,374.766
same,Control-VN-MCC,[3]; [17],32.1955
same,Control_Avg_AUC,[4],406.962
same,Control-MCC,[5]; [18],48.5013
N=C(N)NC(=O)c1nc(Cl)c(N)nc1N [Amiloride],MCC13_AUC,MCC13 cells (VN-MCC); [6],460.482
same,MCC26_AUC,MCC26 cells (VN-MCC); [7],436.049
same,UISO_AUC,UISO cells (VN-MCC); [8],438.294
same,WAGA_AUC,WAGA cells (VP-MCC); [9],426.991
same,MKL1_AUC,MKL-1 cells (VP-MCC); [10],439.734
same,MKL2_AUC,MKL-2 cells (VP-MCC); [11],417.455
same,HACAT_AUC,HACAT cells; [12],483.146
same,HEK293T_AUC,HEK293T cells; [13],497.776
same,NIH3T3_AUC,NIH-3T3 cells; [14],492.231
same,CRL7250_AUC,CRL-7250 cells; [15],484.959
same,MCC_Avg_AUC,[1]; mean AUC of six MCC cell lines,436.501
same,VP-MCC_Avg_AUC,[2]; NPC library,428.06
same,Control-VP-MCC,[2]; [16],61.468
same,VN-MCC_Avg_AUC,[3]; NPC library,444.942
same,Control-VN-MCC,[3]; [17],44.5863
same,Control_Avg_AUC,[4],489.528
same,Control-MCC,[5]; [18],53.0271
Nc1ccc(C(=O)NCC(=O)O)cc1 [Aminohippuric acid],MCC13_AUC,MCC13 cells (VN-MCC); [19],391.573
same,MCC13_AUC,MCC13 cells (VN-MCC); [6],391.574
same,MCC13_AUC,"MCC13 cells (VN-MCC); area under the dose-response curve, MCC13 cells, AUC<450 = reduced viability",391.574
same,MCC26_AUC,MCC26 cells (VN-MCC); [19],410.554
same,MCC26_AUC,"MCC26 cells (VN-MCC); NPC library, qHTS dose-response AUC, MCC26",410.554
same,MCC26_AUC,"MCC26 cells (VN-MCC); area under the dose-response curve, MCC26 cells; AUC<450 = reduced viability",410.554
same,UISO_AUC,UISO cells (VN-MCC); [19],434.505
same,UISO_AUC,UISO cells (VN-MCC); [8],434.505
same,UISO_AUC,"UISO cells (VN-MCC); area under the dose-response curve, UISO cells, AUC<450 = reduced viability",434.505
same,WAGA_AUC,WAGA cells (VP-MCC); [19],448.077
same,WAGA_AUC,WAGA cells (VP-MCC); [9],448.077
same,WAGA_AUC,"WAGA cells (VP-MCC); area under the dose-response curve, WAGA cells, AUC<450 = reduced viability",448.077
same,MKL1_AUC,MKL-1 cells (VP-MCC); [19],395.372
same,MKL1_AUC,MKL-1 cells (VP-MCC); [10],395.372
same,MKL1_AUC,MKL-1 cells (VP-MCC); {},395.372
same,MKL2_AUC,MKL-2 cells (VP-MCC); [19],407.303
same,MKL2_AUC,MKL-2 cells (VP-MCC); [11],407.303
same,MKL2_AUC,"MKL-2 cells (VP-MCC); area under the dose-response curve, MKL-2 cells, AUC<450 = reduced viability",407.303
same,HACAT_AUC,HACAT cells; [20],481.404
same,HACAT_AUC,HACAT cells; [12],481.404
same,HACAT_AUC,"HACAT cells; area under the dose-response curve, HACAT control cells, AUC<450 = reduced viability",481.404
same,HEK293T_AUC,HEK293T cells; [20],467.378
same,HEK293T_AUC,"HEK293T cells; NPC library, qHTS dose-response AUC, HEK293T control",467.377
same,HEK293T_AUC,"HEK293T cells; area under the dose-response curve, HEK293T control cells; AUC<450 = reduced viability",467.377
same,NIH3T3_AUC,NIH-3T3 cells; [20],454.303
same,NIH3T3_AUC,NIH-3T3 cells; [14],454.303
same,NIH3T3_AUC,"NIH-3T3 cells; area under the dose-response curve, NIH3T3 control cells, AUC<450 = reduced viability",454.303
same,CRL7250_AUC,CRL-7250 cells; [20],477.44
same,CRL7250_AUC,CRL-7250 cells; [15],477.44
same,CRL7250_AUC,"CRL-7250 cells; area under the dose-response curve, CRL7250 control cells, AUC<450 = reduced viability",477.44
same,MCC_Avg_AUC,[1]; mean AUC of all 6 MCC cell lines,414.564
same,MCC_Avg_AUC,[1]; mean AUC of six MCC cell lines,414.564
same,Control-VP-MCC,[2]; Control AUC minus VP-MCC AUC,53.2142
same,Control-VP-MCC,"[2]; NPC library, Control AUC minus VP-MCC AUC (therapeutic window)",53.2142
same,VP-MCC_Avg_AUC,[2]; NPC library,416.917
same,Control-VN-MCC,[3]; Control AUC minus VN-MCC AUC,57.9205
same,Control-VN-MCC,"[3]; NPC library, Control AUC minus VN-MCC AUC (therapeutic window)",57.9205
same,VN-MCC_Avg_AUC,[3]; NPC library,412.211
same,Control_Avg_AUC,[4],470.131
same,Control-MCC,[5]; Control AUC minus MCC AUC (therapeutic window),55.5673
